GI50 and TGI data for 28 compounds are collected here from PubChem BioAssay (NCI).

Structures are written as SMILES. Values joined by “and” are separate entries in the source; they are usually repeats but may differ in a detail not shown here. Equal entries are not always repeated.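 Tested at 5 concentrations; 48 h exposure; 96-well plates; endpoints linearly interpolated, else capped at highest concentration. GI50 marks 50% less growth. The concentration for full growth arrest is given as TGI.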 Some results are limits rather than exact numbers.

The subject of the first assay is HT29 colon. Nature of the assay: NCI-60 cell line screen, 48 h.
Take `CSc1ccc(C2=Nn3c(nnc3-c3ccc(F)c(Cl)c3)SC2)cc1`: the GI50 was 5.73 µM and the TGI is 29.7 µM.

Turning to `CNC(=O)Nc1ccc(-c2nc(N3CCOCC3)nc3c2cnn3C2CCOCC2)cc1`, the GI50 was 0.295 µM and the TGI is greater than 100 µM.

With `O=c1oc2ccccc2c(O)c1C=NC(=S)c1ccncc1`, the TGI was greater than 100 µM.

`NCCCCNCCCNC(=O)CNC(=O)CC(O)C(N)CCCC(NC(=O)C(CN)NC(=O)C(O)CNC(=O)CC(N)c1ccc(O)cc1)C(=O)O` (stereo not given) displayed a TGI greater than 10 µM.

For `N/C(=N\OC(=O)c1ccccc1)C(C(=O)NOC(=O)c1ccccc1)C1CCCCC1` (stereo not given), the GI50 is 16.1 µM and the TGI was found to be 35.2 µM.

`CCOc1ccc(N=Nc2ccc3cc(/C(C)=N/NC(=O)/C(C#N)=C\c4ccc(N(CCC#N)CCC#N)cc4)c(=O)oc3c2)cc1`: the TGI was greater than 10 µM.

For `O=C(O)c1cc[c]([Hg][S]c2ncnc3nc[nH]c23)cc1`, the GI50 is 7.27 µM and the TGI amounted to 21.7 µM.

Regarding `CN1CCCN(CCNc2nccc(-c3c(-c4cccc(O)c4)nc4sccn34)n2)S1(=O)=O`, the GI50 is 2.32 µM and 2.33 µM; the TGI is 42.2 µM and > 100 µM.

`Cc1ccc(C(=O)Cc2nc3c([nH]c2=O)c(C)nn3-c2ccccc2)c(C)c1` registered a TGI greater than 10 µM.

Turning to `Cn1cc(C2=C(c3cn(C)c4ccc(N)cc34)C(=O)NC2=O)c2ccccc21`, the GI50 is 5.82 µM and the TGI is greater than 25 µM.

Compound `CCCCN1C(=O)CC2[C@@H]3CCc4cc(OC)ccc4C3CC[C@]2(C)C1=O` (stereo not given in full) came in with a TGI greater than 10 µM.

Regarding `COc1cc(Nc2ccnc(N3CCN(c4ccnc5cc(Cl)ccc45)CC3)n2)cc(OC)c1`, the GI50 was 0.46 µM and the TGI was determined as 2.96 µM.

As for `C/C(=N\O)c1ccc(Nc2cc(-n3nnc4ccccc43)nc3ccccc23)cc1`, the GI50 is 5.89 µM and the TGI was greater than 100 µM.

With `C[C@]12CC[C@@H]3c4ccc(O)c([N+](=O)[O-])c4CC[C@H]3[C@@H]1CC[C@@H]2NS(=O)(=O)c1ccc(C(F)(F)F)cc1`, the GI50 was 2.03 µM and the TGI turned out to be 3.71 µM.

Turning to `CC[C@H](C)[C@H](NC(=O)c1cnccn1)C(=O)N(C)[C@H](C[C@@H](OC(C)=O)c1nc(C(=O)N[C@@H](Cc2ccccc2)C[C@H](C)C(=O)OC)cs1)C(C)C`, the GI50 was 1.06 µM and the TGI amounted to 6.75 µM.

On to `N#Cc1ccc(-c2nc(C#N)c(N)o2)cc1`, for which the TGI was greater than 10 µM.

A further assay relates to M14 melanoma. Put plainly: NCI-60 cell line screen, 48 h.
As for `COc1cc(-c2csc(NC(=O)c3cc(C(F)(F)F)cc(C(F)(F)F)c3)n2)cc(OC)c1OC`, the GI50 is 2.91 µM and the TGI was greater than 100 µM.

Take `CC(C)=CCC12Cc3ccc(O)cc3C(C(C)CN1)C2C` (stereo not given): the TGI came to 51.5 µM.

Take `CC[N+]1(C)CCC(O)(c2ccc(C)cc2)C(C(=O)c2ccc(C)cc2)C1` (stereo not given): the TGI is greater than 100 µM.

As to `CC(=O)c1cccc(N(/C=C/C(=O)C(F)(F)F)CC(=O)c2ccc(Cl)cc2)c1`, the GI50 is greater than 100 µM and the TGI was greater than 100 µM.

For the compound `COc1ccc(Cl)cc1Nc1nc(C(F)(F)F)ccc1C(=O)NN`, the GI50 was 2.38 µM and the TGI came to 13 µM.

Take `CC(C)c1ccc2nc3ccc(C(=O)NCCN(C)C)cn3c(=O)c2c1`: the TGI was found to be 28.3 µM.

`C#C[C@]1(O)CC[C@H]2[C@@H]3CC=C4c5nc(Nc6ccccn6)sc5CC[C@]4(C)[C@H]3CC[C@@]21C`: the GI50 was 1.14 µM and the TGI is 3.21 µM.

As for `CSc1ccc(C2=Nn3c(nnc3-c3ccc(F)c(Cl)c3)SC2)cc1`, the GI50 was 6.73 µM and the TGI came to 28.4 µM.

Turning to `CNC(=O)Nc1ccc(-c2nc(N3CCOCC3)nc3c2cnn3C2CCOCC2)cc1`, the GI50 was 0.233 µM.

With `O=c1oc2ccccc2c(O)c1C=NC(=S)c1ccncc1`, the TGI was greater than 100 µM.

In turn, `NCCCCNCCCNC(=O)CNC(=O)CC(O)C(N)CCCC(NC(=O)C(CN)NC(=O)C(O)CNC(=O)CC(N)c1ccc(O)cc1)C(=O)O` (stereo not given) returned a TGI greater than 10 µM.

With `N/C(=N\OC(=O)c1ccccc1)C(C(=O)NOC(=O)c1ccccc1)C1CCCCC1` (stereo not given), the GI50 is 10.9 µM and the TGI is 23 µM.

For the compound `CCOc1ccc(N=Nc2ccc3cc(/C(C)=N/NC(=O)/C(C#N)=C\c4ccc(N(CCC#N)CCC#N)cc4)c(=O)oc3c2)cc1`, the TGI is greater than 10 µM.

With `O=C(O)c1cc[c]([Hg][S]c2ncnc3nc[nH]c23)cc1`, the GI50 was 2.18 µM and the TGI was 14 µM.

In turn, `CC(C)(C)OC(=O)NCC(C#N)CNC(=O)OC(C)(C)C` gave a TGI greater than 100 µM.

On to `CN1CCCN(CCNc2nccc(-c3c(-c4cccc(O)c4)nc4sccn34)n2)S1(=O)=O`, for which the GI50 was 0.17 µM and 0.128 µM; the TGI is 9.04 µM and 13.2 µM.

Turning to `CC(O)CNC1=CC(=O)C(=O)c2ccccc21` (stereo not given), the TGI was 32.1 µM.

The compound `CC1=C(C(=O)NC2CCCCC2)CC(C(=O)NC2CCCCC2)=C(C)N1` had a TGI greater than 100 µM.

Regarding `Cc1ccc(C(=O)Cc2nc3c([nH]c2=O)c(C)nn3-c2ccccc2)c(C)c1`, the TGI was greater than 10 µM.

With `Cn1cc(C2=C(c3cn(C)c4ccc(N)cc34)C(=O)NC2=O)c2ccccc21`, the GI50 was 13.9 µM and the TGI is greater than 25 µM.

As to `CCCCN1C(=O)CC2[C@@H]3CCc4cc(OC)ccc4C3CC[C@]2(C)C1=O` (stereo not given in full), the TGI is greater than 10 µM.

In turn, `O=C(CC(C(=O)c1cccs1)c1ccc2c(c1)OCO2)c1ccc(Br)cc1` (stereo not given) yielded a TGI greater than 100 µM.

With `C/C(=N\O)c1ccc(Nc2cc(-n3nnc4ccccc43)nc3ccccc23)cc1`, the GI50 was 5 µM and the TGI amounted to 14.9 µM.

As to `C[C@]12CC[C@@H]3c4ccc(O)c([N+](=O)[O-])c4CC[C@H]3[C@@H]1CC[C@@H]2NS(=O)(=O)c1ccc(C(F)(F)F)cc1`, the GI50 was 1.92 µM and the TGI amounted to 3.91 µM.

As to `CC[C@H](C)[C@H](NC(=O)c1cnccn1)C(=O)N(C)[C@H](C[C@@H](OC(C)=O)c1nc(C(=O)N[C@@H](Cc2ccccc2)C[C@H](C)C(=O)OC)cs1)C(C)C`, the GI50 is 0.81 µM and the TGI was found to be 2.76 µM.

Turning to `Cc1c(C)c2cc3c(=O)ccoc3c(C)c2oc1=O`, the TGI is greater than 100 µM.

Turning to `N#Cc1ccc(-c2nc(C#N)c(N)o2)cc1`, the TGI is greater than 10 µM.
